Patent US20120128607A1, “EXTRACT OF WHOLE SEEDS OF MORNINGA SP, AND USE THEREOF IN COSMETIC AND/OR DERMATOLOGICAL COMPOSITIONS” (PIERRE FABRE DERMO-COSMETIQUE, priority 2009, published 2012)
One block for each compound: values may come before it.

How the values were obtained:
ABC G1 = experiment: Model of differentiation of normal human keratinocytes: gene expression (mRNA) of ABC G1; format: cell-based; conditions: NHK, with respect to non-treated cells
Description: (§1) First, the effects of extracts according to the invention have first been studied from a model of differentiated normal human keratinocytes (NHK).
(§2) The effect of the extracts of Moringa sp. on the gene expression of different proteins involved in the synthesis or the transport of the epidermal lipids, ABC G1 and hDES2, has been analyzed.
(§3) The results are expressed in percentage of stimulation of the gene expression (mRNA) of different markers of the epidermal differentiation expressed by the NHKs (with respect to the non-treated cells). A significant positive effect is considered from 100% of stimulation.

hDES2 = experiment: Model of differentiation of normal human keratinocytes: gene expression (mRNA) of hDES2; format: cell-based; conditions: NHK, with respect to non-treated cells
Description: as §1, §2, §3

[1] = DPPH test (antioxidant activity); conditions: methanolic solution of DPPH at 0.06 mM, absorption at 517 nm
Description: The antioxidant activity of the seed extract of Moringa oleifera according to the present invention has been evaluated with the DPPH test. This test is based on the measure of the capacity for trapping antioxidants of the stable radical 2.2-diphenyl-1-picrylhydrazyl (DPPH). This stable radical, having absorption at 517 nm, is reduced to the corresponding hydrazine when it reacts with a hydrogen donor.
The results obtained are expressed in IC50, corresponding to the concentration giving 50% reduction in absorbance of a methanolic solution of DPPH at 0.06 mM.

Compound: CN(CCOc1ccc(CC2SC(=O)NC2=O)cc1)c1ccccn1 (centres unmarked) [Roziglitazone, roziglitazone]
percentage of stimulation of the gene expression (mRNA) of ABC G1 (ABC G1; 10 μM): 330%
percentage of stimulation of the gene expression (mRNA) of hDES2 (hDES2; 10 μM): 190%

Compound: C=C1CC[C@H](O)C/C1=C/C=C1\CCC[C@]2(C)[C@@H]([C@H](C)CCCC(C)C)CC[C@@H]12 [Vit D3, vitamin D3]
percentage of stimulation of the gene expression (mRNA) of ABC G1 (ABC G1; 5 μM): 170%
percentage of stimulation of the gene expression (mRNA) of hDES2 (hDES2; 5 μM): 780%

IC50 (concentration giving 50% reduction in absorbance of DPPH solution) [1]: 6 to 10 µg/mL
Compound: Vitamin E
